Patent US9730447B2, “Fungicidal amides” (E I DU PONT DE NEMOURS AND COMPANY, priority 2013, dated 2017)

Assays:
Type in all cases: in vivo
Septoria tritici = experiment: Test C: preventive spray on wheat seedlings, Septoria tritici (wheat leaf blotch), visual disease rating; details: 100 = 100% disease control, 0 = no control, unmarked values
From the text: (§1) General protocol for preparing test suspensions for Tests A-E: the test compounds were first dissolved in acetone in an amount equal to 3% of the final volume and then suspended at the desired concentration (in ppm) in acetone and purified water (50/50 mix by volume) containing 250 ppm of the surfactant Trem® 014 (polyhydric alcohol esters). The resulting test suspensions were then used in Tests A-E. Compounds were sprayed with either a 40 ppm or 10 ppm (*) test suspension to the point of run-off on the test plants which is the equivalent of a rate of 160 g ai/ha or 40 g ai/ha, respectively.
(§2) The test suspension was sprayed to the point of run-off on wheat seedlings. The following day the seedlings were inoculated with a spore suspension of Septoria tritici (the causal agent of wheat leaf blotch) and incubated in a saturated atmosphere at 24° C. for 48 h, and then moved to a growth chamber at 20° C. for 21 days, after which time visual disease ratings were made.
(§3) Results for Tests A-E are given in Table A. In the Table, a rating of 100 indicates 100% disease control and a rating of 0 indicates no disease control (relative to the controls). A dash (-) indicates no test results.

[1] = system: Erysiphe graminis f. sp. tritici; experiment: Test E: preventive spray on wheat seedlings, Erysiphe graminis f. sp. tritici (wheat powdery mildew), visual disease rating; details: 100 = 100% disease control, 0 = no control, unmarked values
From the text: as §1
The test suspension was sprayed to the point of run-off on wheat seedlings. The following day the seedlings were inoculated with a spore dust of Erysiphe graminis f. sp. tritici, (the causal agent of wheat powdery mildew) and incubated in a growth chamber at 20° C. for 8 days, after which time visual disease ratings were made.
as §3

Botrytis cinerea = experiment: Test A: preventive spray on tomato seedlings, Botrytis cinerea (gray mold), visual disease rating; details: 100 = 100% disease control, 0 = no control relative to controls, unmarked values
From the text: as §1
The test suspension was sprayed to the point of run-off on tomato seedlings. The following day the seedlings were inoculated with a spore suspension of Botrytis cinerea (the causal agent of gray mold on many crops) and incubated in a saturated atmosphere at 20° C. for 48 h, and moved to a growth chamber at 27° C. for 2 days, after which time visual disease ratings were made.
as §3

[2] = system: Puccinia recondite f. sp. tritici; experiment: Test D: preventive spray on wheat seedlings, Puccinia recondite f. sp. tritici (wheat leaf rust), visual disease rating; details: 100 = 100% disease control, 0 = no control, unmarked values
From the text: as §1
as §2, with “Puccinia recondite f. sp. tritici;” for “Septoria tritici”, “rust)” for “blotch)”, “20°” for “24°”, “24” for “48”, “6” for “21”
as §3

[3] = system: Stagonospora nodorum (also known as Septoria nodorum); experiment: Test B: preventive spray on wheat seedlings, Stagonospora nodorum (wheat glume blotch), visual disease rating; details: 100 = 100% disease control, 0 = no control, unmarked values
From the text: as §1
The test suspension was sprayed to the point of run-off on wheat seedlings. The following day the seedlings were inoculated with a spore suspension of Stagonospora nodorum (also known as Septoria nodorum; the causal agent of wheat glume blotch) and incubated in a saturated atmosphere at 20° C. for 48 h, and then moved to a growth chamber at 20° C. for 6 days, after which time visual disease ratings were made.
as §3

SMILES | Test C disease control rating (Septoria tritici) | Test E disease control rating [1] | Test A disease control rating (Botrytis cinerea) | Test D disease control rating [2] | Test B disease control rating [3]
Cc1ccc(-c2ccc(-c3ccccc3NC(=O)c3cn(C)nc3C(F)F)cn2)o1 [compound 22] | 33% | 21% | 94% | 100% | 0%
O=C(Nc1ccccc1-c1ccc(-n2ccc(C(F)(F)F)n2)nc1)c1ncccc1Cl [compound 23] | 100% | 99% | 20% | 96% | 0%
O=C(Nc1ccccc1-c1ccc(-n2ccc(C(F)(F)F)n2)nc1)c1nccnc1C(F)(F)F [compound 24] | 100% | 100% | 99% | 100% | 100%
O=C(Nc1ccccc1-c1ccc(-n2ccc(C(F)(F)F)n2)nc1)c1nccnc1Cl [compound 25] | 100% | 90% | 99% | 98% | 82%
O=C(Nc1ccccc1-c1ccc(-n2ccc(C(F)(F)F)n2)nc1)c1ncccc1C(F)(F)F [compound 26] | 100% | 100% | 88% | 99% | 90%
O=C(Nc1ccccc1-c1ccc(-n2cc(-c3cccc(F)c3)cn2)nc1)c1ncccc1C(F)(F)F [compound 27] | 100% | 96% | 89% | 98% | 99%
O=C(Nc1ccccc1-c1ccc(-n2cc(-c3cc(F)cc(F)c3)cn2)nc1)c1ncccc1C(F)(F)F [compound 28] | 100% | 96% | 99% | 99% | 99%
O=C(Nc1ccccc1-c1ccc(-n2cc(-c3ccccc3F)cn2)nc1)c1ncccc1C(F)(F)F [compound 29] | 100% | 82% | 77% | 89% | 99%
Cc1nc(C(F)(F)F)c(C(=O)Nc2ccccc2-c2ccc(-n3ccc(C(F)(F)F)n3)nc2)s1 [compound 92] |  | 98% | 0% | 100% | 60%
Cc1ccsc1C(=O)Nc1ccccc1-c1ccc(-n2ccc(C(F)(F)F)n2)nc1 [compound 93] |  | 99% | 0% | 100% | 97%
Cn1cc(C(=O)Nc2ccccc2-c2ccc(-n3ccc(C(F)(F)F)n3)nc2)c(C(F)(F)F)n1 [compound 94] |  | 99% | 0% | 100% | 98%
Cc1ccsc1C(=O)Nc1ccccc1-c1cnc(-n2ccc(C(F)(F)F)n2)c(Cl)c1 [compound 95] |  | 98% | 0% | 100% | 100%
O=C(Nc1ccccc1-c1cnc(-n2ccc(C(F)(F)F)n2)c(Cl)c1)c1nccnc1Cl [compound 96] |  | 96% | 0% | 99% | 60%
Cn1cc(C(=O)Nc2ccccc2-c2cnc(-n3ccc(C(F)(F)F)n3)c(Cl)c2)c(C(F)(F)F)n1 [compound 97] |  | 99% | 0% | 100% | 87%
